PubChem BioAssay (NCI)
“And” between values parts separate entries of the source, which are not always exact repeats. Identical values can stand only once.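 Exposure lasted 48 hours, with cells grown in 96-well plates and compounds tested at five concentrations. At the GI50, growth is halved. TGI: concentration producing complete growth inhibition.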

Legend:
Assay in all cases: growth of human tumour cells (NCI), 48 h
SF-295 CNS = tested on: SF-295 CNS
HCC-2998 colon = tested on: HCC-2998 colon
NCI-H522 lung = tested on: NCI-H522 lung
LOX IMVI melanoma = tested on: LOX IMVI melanoma
SK-MEL-28 melanoma = tested on: SK-MEL-28 melanoma
DU-145 prostate = tested on: DU-145 prostate
COLO 205 colon = tested on: COLO 205 colon
OVCAR-4 ovarian = tested on: OVCAR-4 ovarian

SMILES | GI50 (SF-295 CNS) | TGI (SF-295 CNS) | GI50 (HCC-2998 colon) | TGI (HCC-2998 colon) [µM] | GI50 (NCI-H522 lung) | TGI (NCI-H522 lung) | GI50 (LOX IMVI melanoma) | TGI (LOX IMVI melanoma) | GI50 (SK-MEL-28 melanoma) [µM] | TGI (SK-MEL-28 melanoma) [µM] | GI50 (DU-145 prostate) | TGI (DU-145 prostate) [µM] | GI50 (COLO 205 colon) [µM] | TGI (COLO 205 colon) | GI50 (OVCAR-4 ovarian) [µM] | TGI (OVCAR-4 ovarian) [µM]
COc1cc2c(=O)[nH]c3cc([N+](=O)[O-])ccc3c2cc1[N+](=O)[O-] | 6.27 µM | > 100 µM | 19.5 µM | > 100 | 1.67 µM | > 100 µM | 3.51 µM | > 100 µM | > 100 | > 100 | 4.63 µM | > 100 | 4.11 | > 100 µM | 5.16 | > 100
O=C(Nc1nc2ccccc2s1)Nc1ccc([N+](=O)[O-])cc1Cl | 3.31 µM | 15.8 µM | 5.65 µM | 25 | 2.74 µM | 10.2 µM | 2.66 µM | 6.7 µM | 6.25 | 20.1 | 3.08 µM | 7.74 | 10.3 | 32.9 µM | 1.86 | 3.68
CC[C@H](C)[C@H](NC(=O)[C@H]1CCCCN1C)C(=O)N(C)[C@H](C[C@@H](OC(C)=O)c1nc(C(=O)N[C@@H](Cc2ccccc2)C[C@H](C)C(=O)O)cs1)C(C)C | 0.000305 µM and < 0.00165 µM | 0.00282 µM and < 0.00165 µM | 0.0013 µM and 0.00165 µM | > 16.5 | 0.000347 µM and < 0.00165 µM | 0.0133 µM and < 0.00165 µM | 0.000609 µM and 0.00165 µM | > 16.5 µM | 8.63 | > 16.5 | 0.000475 µM and 0.00165 µM | 0.0367 | 0.000394 | 0.00275 µM | – | > 16.5
CN1CSC(=S)N(Cc2ccccc2)C1 | 32.7 µM | > 100 µM | 71 µM | > 100 | 1.89 µM | 5.65 µM | 2.75 µM | 11.6 µM | 18.4 | 41 | 2.05 µM | 6.21 | 15 | 32.3 µM | 14.2 | 27.8
CCN1CCN(C(=O)[C@]23CCC(C)(C)C[C@@H]2C2=CC[C@@H]4[C@@]5(C)C/C(=C/c6ccncc6)C(=O)C(C)(C)[C@@H]5CC[C@@]4(C)[C@]2(C)CC3)CC1 | 1.43 µM | 2.76 µM | 1.47 µM | 2.89 | 1.53 µM | 3.39 µM | 1.4 µM | 2.8 µM | 1.62 | 3.03 | 1.67 µM | 3.19 | 1.64 | 3.64 µM | 1.54 | 3.2
CN1CCN(CCCOc2cccc3nc(Nc4ccc(Cl)c(C(F)(F)F)c4)ccc23)CC1 | 1.8 µM | 3.38 µM | 1.91 µM | 3.44 | 1.83 µM | 3.64 µM | 1.56 µM | 3.07 µM | 1.39 | 2.81 | 1.81 µM | 3.27 | 1.72 | 3.35 µM | 2.73 | 7.45
Cn1c(-c2c(N)n(CCCN3CCOCC3)c3nc(C#N)c(C#N)nc23)nc2ccccc21 | 19.6 µM | > 58.1 µM | 20.1 µM | 40 | 26.8 µM | > 100 µM | 11.3 µM | > 52.5 µM | 3.03 | 11.8 | 3.68 µM | 29.2 | > 42.8 | > 61.7 µM | 17.9 | > 100
N=c1c2c(=N)n3c(nc2nc2n1-c1ccccc1Sc1ccccc1-2)sc1cc(Cl)ccc13 | 1.82 µM | 9.52 µM | 1.32 µM | 4.97 | 1.2 µM | 6.99 µM | 2.7 µM | 14.6 µM | 2.65 | 13.6 | 3.55 µM | > 100 | 3.72 | 32.5 µM | 2.78 | > 100
O=C1Cc2cc(C(=O)NC3C[C@H]4CC[C@@H](C3)N4S(=O)(=O)CC3CCN(CCCC(F)(F)F)CC3)c(Cl)cc2N1 (stereo partly drawn) | > 100 µM | > 100 µM | > 100 µM | > 100 | > 100 µM | > 100 µM | > 100 µM | > 100 µM | > 100 | > 100 | > 100 µM | > 100 | 31.2 | > 100 µM | > 100 | > 100
O=C(COc1cccc(/C=C2\CSc3ccccc3C2=O)c1)Nc1nccs1 | 2.09 µM | 3.59 µM | 1.7 µM | 3.13 | 1.55 µM | 3.27 µM | 1.58 µM | 3.06 µM | 3.75 | 12.4 | 1.94 µM | 3.99 | 5.61 | 18.9 µM | 3.94 | 19.4
O=C1/C=C/[C@@H](O)[C@@H]2C[C@@H](O)C[C@H]2/C=C/CCC[C@H](C(F)(F)F)O1 | > 27 µM | > 100 µM | 1.14 µM | 9.2 | 0.191 µM | 0.515 µM | 0.137 µM | 0.388 µM | 0.096 | 0.65 | 0.955 µM | > 100 | 0.0381 | 0.15 µM | 0.139 | > 100
COC(=O)c1ccc(NC(=O)Oc2ccc(N(CCCl)CCCl)cc2)cc1 | 1.38 µM | 11.4 µM | 29.1 µM | > 100 | 3.47 µM | 16.3 µM | 3.69 µM | > 100 µM | 30.7 | > 100 | 3.6 µM | 19.9 | 9.88 | > 100 µM | 13.8 | 38.2
CCCCCCCCCCCCCC[C@@H](O)[C@H]1CC[C@H]([C@H]2CC[C@H]([C@H](O)CCCCCC[C@@H](O)CC3=C[C@H](C)OC3=O)O2)O1 | 1.18 µM | > 25 µM | – | > 25 | – | > 25 µM | – | 2.56 µM and > 25 µM | 2.9 | > 25 | > 25 µM | > 25 | 1.52 | 3.06 µM and > 25 µM | – | > 25
O=S(=O)(c1cnccc1N1CCN(CCO)CC1)N1CCCC1 | – | > 100 µM | – | > 100 | – | > 100 µM | – | > 100 µM | – | > 100 | – | > 100 | – | > 100 µM | – | > 100
COc1ccc(N(C)c2nc(N)nc3sc4c(c23)CCCC4)cc1 | < 0.01 µM | 13.1 µM | < 0.0146 µM | 12 | < 0.01 µM | – | < 0.01 µM | 15.3 µM | 4.3 | 23.4 | < 0.0166 µM | 11.2 | 0.021 | 0.0573 µM | < 0.01 | 15.3
c1ccc2c3c([nH]c2c1)C(c1ccc(C2NCCc4c2[nH]c2ccccc42)cc1)NCC3 (stereo not drawn) | 1.62 µM | 3.33 µM | 0.274 µM | 1.28 | 0.414 µM | 1.49 µM | 0.196 µM | 0.45 µM | 1.68 | 3.18 | 0.749 µM | 2.13 | 0.204 | 0.459 µM | 1.14 | 2.53
CC(=O)[O][Hg][c]1c(C)c(C)cc(C)c1C | 1.87 µM | 4.14 µM | 1.37 µM | 2.72 | 0.194 µM | 0.486 µM | 1.21 µM | 3.06 µM | 1.5 | 3.02 | 1.86 µM | 4.62 | 2.49 | 6.47 µM | 0.566 | 1.37
Cc1cc(Cl)nc(N(CCCNc2ccnc3cc(Cl)ccc23)Cc2ccco2)n1 | 1.28 µM | 2.81 µM | 1.97 µM | 5.67 | 2.93 µM | 12.4 µM | 2.07 µM | 5.4 µM | 2.38 | 6.37 | 3.48 µM | 14.7 | 1.43 | 3.08 µM | 2.31 | 12.2
c1cc2c(cn1)Nc1ccncc1S2 | 52.7 µM | > 100 µM | 49.8 µM | > 100 | 40.4 µM | > 100 µM | 33.2 µM | > 100 µM | > 100 | > 100 | 44.5 µM | > 100 | 11.8 | 59.5 µM | > 100 | > 100
COc1nnc2ccc(N3CCC(c4ccc(OCCN5CCN(C)C(=O)[C@H]5C)cc4)CC3)nn12 | 0.206 µM | > 100 µM | 0.138 µM | 16.1 | 0.0159 µM | 0.878 µM | 0.038 µM | 4.56 µM | 0.522 | > 100 | 9.88 µM | > 100 | 0.0553 | > 100 µM | 0.106 | > 100
O=[N+]([O-])c1cccc(C2CC(c3ccccc3)=Nc3ccccc3S2)c1 (stereo not drawn) | 25.1 µM | 77.7 µM | 16 µM | 31 | 10.8 µM | 23.5 µM | 3.02 µM | 11.9 µM | 17.4 | 34.2 | 16.8 µM | 34.3 | 19.2 | 41.7 µM | 11.7 | 26.4
O=C(CN1C(=O)S/C(=C\C(Cl)=C\c2ccccc2)C1=O)NC1C=CS(=O)(=O)C1 (stereo not drawn) | 2.32 µM | 5.19 µM | 1.95 µM | 3.75 | 0.299 µM | 1.33 µM | 0.24 µM | 0.624 µM | 1.81 | 3.9 | 1.83 µM | 4.27 | 1.54 | 3.76 µM | 2.27 | 17.4
